This note sets out measurements from US10040781B2, “Tank-binding kinase inhibitor compounds” (Gilead Sciences, Inc., priority 2014, dated 2018).

Sequence of TBK1 (Q9UHD2 whole entry): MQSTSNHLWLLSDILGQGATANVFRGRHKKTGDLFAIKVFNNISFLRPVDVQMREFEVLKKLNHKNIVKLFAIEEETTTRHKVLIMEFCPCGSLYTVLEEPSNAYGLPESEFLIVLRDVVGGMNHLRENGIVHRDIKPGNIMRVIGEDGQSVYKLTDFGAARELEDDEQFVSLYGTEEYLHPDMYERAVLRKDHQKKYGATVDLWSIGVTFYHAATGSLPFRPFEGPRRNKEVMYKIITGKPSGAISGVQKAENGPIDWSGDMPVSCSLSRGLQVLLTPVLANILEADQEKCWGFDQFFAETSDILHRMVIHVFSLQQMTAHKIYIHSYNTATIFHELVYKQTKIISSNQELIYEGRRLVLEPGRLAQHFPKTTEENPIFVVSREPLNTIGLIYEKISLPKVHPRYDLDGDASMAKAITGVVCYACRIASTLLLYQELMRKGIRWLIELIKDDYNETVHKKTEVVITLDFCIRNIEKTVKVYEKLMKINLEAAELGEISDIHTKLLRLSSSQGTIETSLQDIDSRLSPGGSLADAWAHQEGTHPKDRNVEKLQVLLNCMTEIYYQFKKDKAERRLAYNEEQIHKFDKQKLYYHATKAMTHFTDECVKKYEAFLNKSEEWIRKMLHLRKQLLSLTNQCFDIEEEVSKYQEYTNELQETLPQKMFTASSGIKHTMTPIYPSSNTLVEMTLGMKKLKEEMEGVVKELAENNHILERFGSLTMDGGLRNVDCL
Sequence of hJAK2 (O60674 whole entry): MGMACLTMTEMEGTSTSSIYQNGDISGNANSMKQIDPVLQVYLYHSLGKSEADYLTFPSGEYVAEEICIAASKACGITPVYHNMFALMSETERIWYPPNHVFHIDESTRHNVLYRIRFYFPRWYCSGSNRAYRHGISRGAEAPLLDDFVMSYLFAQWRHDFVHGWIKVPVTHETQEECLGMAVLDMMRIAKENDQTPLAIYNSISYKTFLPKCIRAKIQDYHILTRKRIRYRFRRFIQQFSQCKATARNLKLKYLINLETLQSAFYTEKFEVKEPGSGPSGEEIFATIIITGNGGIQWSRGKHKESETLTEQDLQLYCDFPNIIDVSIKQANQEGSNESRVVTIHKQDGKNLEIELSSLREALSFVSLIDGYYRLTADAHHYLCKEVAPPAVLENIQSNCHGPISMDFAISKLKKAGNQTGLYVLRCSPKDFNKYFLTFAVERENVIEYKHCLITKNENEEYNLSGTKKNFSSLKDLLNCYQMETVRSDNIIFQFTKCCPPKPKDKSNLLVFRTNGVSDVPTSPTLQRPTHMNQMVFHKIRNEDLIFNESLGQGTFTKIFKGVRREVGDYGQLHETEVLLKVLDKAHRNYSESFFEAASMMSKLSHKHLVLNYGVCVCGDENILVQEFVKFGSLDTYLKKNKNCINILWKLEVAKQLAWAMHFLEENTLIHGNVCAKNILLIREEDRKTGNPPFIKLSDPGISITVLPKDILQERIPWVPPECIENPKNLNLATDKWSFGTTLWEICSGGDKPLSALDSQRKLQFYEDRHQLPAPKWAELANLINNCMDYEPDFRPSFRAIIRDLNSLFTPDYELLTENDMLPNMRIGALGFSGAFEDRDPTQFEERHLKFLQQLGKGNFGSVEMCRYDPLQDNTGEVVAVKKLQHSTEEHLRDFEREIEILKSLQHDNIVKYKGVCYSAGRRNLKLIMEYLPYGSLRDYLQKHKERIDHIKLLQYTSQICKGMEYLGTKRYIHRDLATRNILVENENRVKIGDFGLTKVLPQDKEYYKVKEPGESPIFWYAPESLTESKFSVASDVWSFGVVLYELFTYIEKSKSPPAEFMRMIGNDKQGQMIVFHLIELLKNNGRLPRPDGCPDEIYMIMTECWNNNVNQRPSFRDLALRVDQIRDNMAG

One test addresses hJAK2 (Homo sapiens (Human), UniProt O60674). The experiment in a line: hJAK2 LANCE TR-FRET enzymatic assay. It counts as biochemical. To be noted: read-out: JAK2 IC50.
For the compound `N#Cc1cc(-c2ncnc(Nc3ccc(N4CCN(C5COC5)CC4)cc3)n2)ccc1OC1CCN(C(=O)CO)CC1(F)F` (racemic) [Example 151, 2-((3,3-difluoro-1-(2-hydroxyacetyl)piperidin-4-yl)oxy)-5-(4-((4-(4-(oxetan-3-yl)piperazin-1-yl)phenyl)amino)-1,3,5-triazin-2-yl)benzonitrile], the half-maximal inhibitory concentration (IC50) was determined as 0.122 µM.
On the same count and under the same terms, next, `CC1(C)CN(C(=O)CO)CCC1Oc1ccc(-c2ncnc(Nc3ccc(N4CCN(C5COC5)CC4)cc3)n2)cc1C#N` (racemic) [Example 174, 2-((1-(2-hydroxyacetyl)-3,3-dimethylpiperidin-4-yl)oxy)-5-(4-((4-(4-(oxetan-3-yl)piperazin-1-yl)phenyl)amino)-1,3,5-triazin-2-yl)benzonitrile]: 0.16 µM.
Same read-out and setting: the same measure for `N#Cc1cc(-c2ncnc(Nc3ccc(N4CCN(C5COC5)CC4)cc3)n2)ccc1O[C@H]1CCN(C(=O)CO)CC1(F)F` (single isomer, unassigned) [Example 152]: 0.075 µM.
On the same count and under the same terms, the same measure for `N#Cc1cc(-c2ncnc(Nc3ccc(N4CCN(C5COC5)CC4)cc3)n2)ccc1O[C@@H]1CCN(C(=O)CO)CC1(F)F` (single isomer, unassigned) [Example 153]: 0.056 µM.
In the case of `CC1(C)CN(C(=O)CO)CC[C@@H]1Oc1ccc(-c2ncnc(Nc3ccc(N4CCN(C5COC5)CC4)cc3)n2)cc1C#N` (single isomer, unassigned) [Example 175], the IC50 worked out at 0.397 µM.
For the compound `CC1(C)CN(C(=O)CO)CC[C@H]1Oc1ccc(-c2ncnc(Nc3ccc(N4CCN(C5COC5)CC4)cc3)n2)cc1C#N` (single isomer, unassigned) [Example 176], the IC50 was 0.133 µM.
As to `COc1cc(Nc2ncnc(-c3ccc(OC4CCOCC4)c(C#N)c3)n2)ccc1N1CCN(C)CC1` [Example 4, 5-(4-((3-methoxy-4-(4-methylpiperazin-1-yl)phenyl)amino)-1,3,5-triazin-2-yl)-2-((tetrahydro-2H-pyran-4-yl)oxy)benzonitrile], the half-inhibitory concentration (IC50) came out at 0.053 µM.
On the same count and under the same terms, the same measure for `CN1CCN(c2ccc(Nc3ncnc(-c4ccc(OC5CCOCC5)c(C#N)c4)n3)cc2)CC1` [Example 12, 5-(4-((4-(4-methylpiperazin-1-yl)phenyl)amino)-1,3,5-triazin-2-yl)-2-((tetrahydro-2H-pyran-4-yl)oxy)benzonitrile]: 0.162 µM; for `Cc1n[nH]c(C)c1C(=O)N1CC[C@H](Oc2ccc(-c3ncnc(Nc4ccc(N5CCN(C6COC6)CC5)cc4)n3)cc2C#N)[C@H](F)C1` [Example 135, 2-(((3R,4S)-1-(3,5-dimethyl-1H-pyrazole-4-carbonyl)-3-fluoropiperidin-4-yl)oxy)-5-(4-((4-(4-(oxetan-3-yl)piperazin-1-yl)phenyl)amino)-1,3,5-triazin-2-yl)benzonitrile]: 0.212 µM.
Regarding `N#Cc1cc(-c2ncnc(Nc3ccc(N4CCN(C5COC5)CC4)cc3)n2)ccc1OC1CCN(C(=O)c2ncc[nH]2)CC1(F)F` (centres unmarked) [Example 163, 2-((3,3-difluoro-1-(1H-imidazole-2-carbonyl)piperidin-4-yl)oxy)-5-(4-((4-(4-(oxetan-3-yl)piperazin-1-yl)phenyl)amino)-1,3,5-triazin-2-yl)benzonitrile], the IC50 was found to be 0.248 µM.
On the same count and under the same terms, the same measure for `C[C@H](O)C(=O)N1CC[C@@H](Oc2ccc(-c3ncnc(Nc4ccc(N5CCN(C6COC6)CC5)cc4)n3)cc2C#N)[C@H](F)C1` [Example 234, 2-(((3R,4R)-3-fluoro-1-((S)-2-hydroxypropanoyl)piperidin-4-yl)oxy)-5-(4-((4-(4-(oxetan-3-yl)piperazin-1-yl)phenyl)amino)-1,3,5-triazin-2-yl)benzonitrile]: 0.669 µM.
The same measure, in the same setting: the same measure for `C[C@H](O)C(=O)N1CC[C@H](Oc2ccc(-c3ncnc(Nc4ccc(N5CCN(C6COC6)CC5)cc4)n3)cc2C#N)[C@H](F)C1` [Example 238, 2-(((3R,4S)-3-fluoro-1-((8)-2-hydroxypropanoyl)piperidin-4-yl)oxy)-5-(4-((4-(4-(oxetan-3-yl)piperazin-1-yl)phenyl)amino)-1,3,5-triazin-2-yl)benzonitrile]: 0.445 µM; for `N#Cc1cc(-c2ncnc(Nc3ccc(N4CCN(C5COC5)CC4)cc3)n2)ccc1O[C@H]1CCN(C(=O)c2cc(Cl)n[nH]2)C[C@H]1F` [Example 324, 2-(((3R,4S)-1-(3-chloro-1H-pyrazole-5-carbonyl)-3-fluoropiperidin-4-yl)oxy)-5-(4-((4-(4-(oxetan-3-yl)piperazin-1-yl)phenyl)amino)-1,3,5-triazin-2-yl)benzonitrile]: 0.237 µM.

Another test addresses TBK1 (Homo sapiens (Human), UniProt Q9UHD2). The experiment in a line: TBK1 TR-FRET enzymatic assay.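 Further: phosphorylation of a biotinylated Ser/Thr peptide by purified full-length recombinant TBK1, read by TR-FRET after 240 min at 25 °C, IC50 is the geometric mean of at least four runs.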
Details: not given
`N#Cc1cc(-c2ncnc(Nc3ccc(C4CCNCC4)cc3)n2)ccc1O[C@H]1CCCC[C@H]1F` (racemic) [Example 292, rac-2-(((1S,2R)-2-fluorocyclohexyl)oxy)-5-(4-((4-(piperidin-4-yl)phenyl)amino)-1,3,5-triazin-2-yl)benzonitrile] displayed an IC50 of 0.006 µM.
The same measure, in the same setting: the same measure for `C[C@H](O)C(=O)N1CC[C@@H](Oc2ccc(-c3ncnc(Nc4ccc(N5CCN(C6COC6)CC5)cc4)n3)cc2C#N)C1` [Example 88, 2-(((R)-1-((S)-2-hydroxypropanoyl)pyrrolidin-3-yl)oxy)-5-(4-((4-(4-(oxetan-3-yl)piperazin-1-yl)phenyl)amino)-1,3,5-triazin-2-yl)benzonitrile]: 0.026 µM.
With `C[C@@H](O)C(=O)N1CC[C@@H](Oc2ccc(-c3ncnc(Nc4ccc(N5CCN(C6COC6)CC5)cc4)n3)cc2C#N)C1` [Example 91, 2-(((R)-1-((R)-2-hydroxypropanoyl)pyrrolidin-3-yl)oxy)-5-(4-((4-(4-(oxetan-3-yl)piperazin-1-yl)phenyl)amino)-1,3,5-triazin-2-yl)benzonitrile], the IC50 was 0.145 µM.
On the same count and under the same terms, next, `N#Cc1cc(-c2ncnc(Nc3ccc(N4CCN(C5COC5)CC4)cc3)n2)ccc1O[C@@H]1CN(C(=O)CO)C[C@@H]1F` [Example 101, 2-(((3R,4S)-4-fluoro-1-(2-hydroxyacetyl)pyrrolidin-3-yl)oxy)-5-(4-((4-(4-(oxetan-3-yl)piperazin-1-yl)phenyl)amino)-1,3,5-triazin-2-yl)benzonitrile]: 0.014 µM; `N#Cc1cc(-c2ncnc(Nc3ccc4c(c3)OC(F)(F)O4)n2)ccc1OC1CCOCC1` [Example 275, 5-(4-((2,2-difluorobenzo[d][1,3]dioxol-5-yl)amino)-1,3,5-triazin-2-yl)-2-((tetrahydro-2H-pyran-4-yl)oxy)benzonitrile]: 0.115 µM; `N#Cc1cc(-c2ncnc(Nc3ccc(N4CCN(C5CCOCC5)CC4)cc3)n2)ccc1O[C@H]1CCN(C(=O)CO)C[C@H]1F` [Example 306, 2-(((3R,4S)-3-fluoro-1-(2-hydroxyacetyl)piperidin-4-yl)oxy)-5-(4-((4-(4-(tetrahydro-2H-pyran-4-yl)piperazin-1-yl)phenyl)amino)-1,3,5-triazin-2-yl)benzonitrile]: 0.002 µM.
Same read-out and setting: next, `C[C@H](O)C(=O)N1CC[C@H](Oc2ccc(-c3ncnc(Nc4ccc(C5CCN(C6COC6)CC5)cc4)n3)cc2C#N)[C@H](F)C1` [Example 311, 2-(((3R,4S)-3-fluoro-1-((S)-2-hydroxypropanoyl)piperidin-4-yl)oxy)-5-(4-((4-(1-(oxetan-3-yl)piperidin-4-yl)phenyl)amino)-1,3,5-triazin-2-yl)benzonitrile]: 0.003 µM.
